Reference: publication PMC10517462, “Small molecule targeting of the p38/Mk2 stress signaling pathways to improve cancer treatment” (BMC Cancer, 2023)
Read-outs that look alike come from different tables or passages of the source.

Legend:
NCI-H69 cells [1] = assay: FACS-based (DRAQ7) viability assay; format: cell-based, human
Procedure: […] Etoposide, SB203580 and MK2.III were all dissolved in 0.2% of DMSO before use. Cells treated only with the carrier molecule DMSO (0.2%) served as a control.
Viability analysis was performed by staining with the […], stoichiometric DNA stain DRAQ7 (640 or 633 nm excitation and 670 nm emission; Biostatus Limited). After 48-h treatment with DNA damaging agents and/or inhibitors, cells were washed once with RPMI 1640 and resuspended in 1 ml culture media at a concentration of less than 5 × 10^5/ ml. Cells were stained with 20 µM of DRAQ7 and incubated at 37 °C for 10 min before FACS Calibur cytometer analysis. Fluorescent signals were amplified using linear mode. Cell cycle analysis was performed either by staining DRAQ7 or Propidium Iodide (PI). Cells were stained with 20 µM of DRAQ7 and incubated at 37 °C for 10 min before analysis on a FACSCalibur cytometer. Propidium Iodide (PI, excited with 488 nm laser, collected with 585/52 bandpass filter) was used in the large-scale experiments. Samples were then fixed with 70% EtOH following the viability assay and stored at 4 °C overnight before the experiment. After fixation with 70% EtOH (added drop-wise) for 24 h, samples were centrifuged into the pellet and then washed twice with ice-cold PBS. The supernatant was discarded and pellets were resuspended in 100 µl of RNase A (100 µg/ml) and 400 µl of PI ([…] in PBS). Analysis of flow cytometry data was performed using FlowJo software. Untreated, unstained cells were used as a negative control to determine the location of viable cells on the dot plots. Events below a threshold size were interpreted as cellular debris and were removed from the dataset, leaving a whole cell population.

[2] = system: SW620 colorectal cancer cell line; assay: CCK8 cell viability assay, SW620; format: cell-based, human; conditions: MK2.III 1 µM or etoposide 150 µM alone, 24 h
Procedure: (§1) To assess the effect of MK2.III kinase inhibitor and the etoposide (VP-16) on the viability of different cancer cell lines, cells were seeded in 96-well plates in a concentration of 5000 cells per well. After 12 h, etoposide and 1 μM MK2.III diluted in culture media were added into the wells for 24 h. NCI-H69 cells were exposed to a series of etoposide concentrations from 20 μM to 150 μM. MDA-MB-231, SW 620, and SW 480 cell lines were incubated with 150 μM etoposide. After treatment, 10 μL of the CCK-8 reagent (96992, Sigma) was added to each well for 1 h followed by optical density measurement at 450 nm using hybrid plate reader Synergy H1.

NCI-H69 xenograft = assay: Tumor (xenograft) suppression with combination chemotherapy in SCID mice; format: in vivo; conditions: for Tumor Volume (mm^3) median (25th and 75th quartile): VP-16 12 mg/kg
Procedure: To establish the most suitable xenograft model for the main experiment we used two mouse lines – BALB/c Nude and SCID (both female, 6 weeks, n = 20, Charles River). Both mouse lines were injected with NCI-H69 cancer cells (xenograft). Before injection, cells were grown at 37 °C in RPMI-1640 medium containing 10% FBS and pen/strep. Cells were mixed with Matrigel (1:1) and depending on the group 5 × 10^6 or 10 × 10^6 cells were injected into a mouse subcutaneously along the spine to the level of the left scapula. Mice were divided into 4 groups: (1) 5 × 10^6 NCI-H69 SCID (n = 5); (2) 5 × 10^6 NCI-H69 Nude (n = 5); (3) 10 × 10^6 NCI-H69 SCID (n = 5); and (4) 10 × 10^6 NCI-H69 Nude (n = 5).
The main experiment (injection of the drugs) took place after the tumor growth was established. The tumor growth in mice following the injection of cells was monitored twice a week and upon reaching the volume of ~ 100 mm^3, animals were randomized into 5 groups (12 female SCID mice in each group). The drug treatment was performed as follows: the first group was a control and received a placebo in the form of PBS (tumor volume 95 ± 38 mm^3); the second group received 12 mg/kg of Etoposide (tumor volume 101 ± 51 mm^3); the third group was injected with 4 mg/kg of MK2.III (tumor volume 105 ± 44 mm^3); fourth and fifth groups were injected with 12 mg/kg of Etoposide and 4 mg/kg or 2 mg/kg of MK2.III (tumor volumes 112 ± 57 and 107 ± 49 mm^3 respectively). Drugs were injected intraperitoneally daily. Etoposide was injected 3 days after the randomization into groups and MK2.III was administered for 28 days. Tumor growth/suppression was measured using calipers every 3–4 days for the duration of the 28-day treatment and the tumor volume was calculated as follows:[…],
Antitumor properties of drugs in the test group were determined based on the slowing of the tumor growth or tumor volume compared with the control group receiving PBS. Animal welfare was monitored throughout the study period to ensure that animals in distress were euthanized by carbon dioxide asphyxiation. All the animals were also euthanized by carbon dioxide asphyxiation following the completion of the study.
Descriptive statistics were used to summarize the tumor size and data reported as medians and 25th and 75th quartiles. Wilcoxon sum rank test was used to investigate the effects of the treatments on tumor growth. […] Statistical analyses were performed on the SigmaPlot 11.0 software.

NCI-H69 cells [3] = assay: FACS-based cell cycle analysis; parameters: species or system human; conditions: single treatment, increasing dose
Procedure: The cells were grown in 12 well plates (Scientific Laboratory Supplies Limited, UK) in RPMI 1640 (Gibco, UK) supplemented with 10% FBS (Autogen Bioclear, UK) and 10,000 U/ml penicillin and 10 mg/ml streptomycin (Sigma, UK) at 37 °C under 5% CO2 and treated with 10, 20, 50, 100 and 150 µM of DNA damaging agent etoposide (VP-16) (Sigma, UK) in the presence or absence of p38MAPK inhibitor SB203580 (Tocris Chemical Co., UK) or MK2 inhibitor MK2.III (Merck, UK) in concentrations of 0, 0.3125, 0.625, 1.25, 2.5, and 5.0 µM. Etoposide, SB203580 and MK2.III were all dissolved in 0.2% of DMSO before use. Cells treated only with the carrier molecule DMSO (0.2%) served as a control.
Viability analysis was performed by staining with the […], stoichiometric DNA stain DRAQ7 (640 or 633 nm excitation and 670 nm emission; Biostatus Limited). After 48-h treatment with DNA damaging agents and/or inhibitors, cells were washed once with RPMI 1640 and resuspended in 1 ml culture media at a concentration of less than 5 × 10^5/ ml. Cells were stained with 20 µM of DRAQ7 and incubated at 37 °C for 10 min before FACS Calibur cytometer analysis. Fluorescent signals were amplified using linear mode. Cell cycle analysis was performed either by staining DRAQ7 or Propidium Iodide (PI). Cells were stained with 20 µM of DRAQ7 and incubated at 37 °C for 10 min before analysis on a FACSCalibur cytometer. […]

[4] = system: MDA-MB-231 breast cancer cell line; assay: CCK8 cell viability assay, MDA-MB-231; format: cell-based, human; conditions: MK2.III 1 µM or etoposide 150 µM alone, 24 h
Procedure: as §1

[5] = system: SW480 colorectal cancer cell line; assay: CCK8 cell viability assay, SW480; format: cell-based, human; conditions: etoposide 150 µM alone, 24 h
Procedure: as §1

NCI-H69 cells [6] = assay: CCK8-based cell viability assay, NCI-H69; parameters: species or system human; conditions: 24 h
Procedure: as §1

C[S+]([O-])c1ccc(-c2nc(-c3ccncc3)c(-c3ccc(F)cc3)[nH]2)cc1 (stereo not shown) [SB203580]
viability at 0.321 µM (NCI-H69 cells [1]; Homo sapiens, NCI-H69, Table 1 dose response, agent alone 0.321 µM (lowest dose), 48 h, read-out: Viable cells (%)): 89% | viability at 0.626 µM (NCI-H69 cells [1]; Homo sapiens, NCI-H69, Table 1 dose response, agent alone 0.626 µM, 48 h, read-out: Viable cells (%)): 89.8% | viability at 1.25 µM (NCI-H69 cells [1]; Homo sapiens, NCI-H69, Table 1 dose response, agent alone 1.25 µM, 48 h, read-out: Viable cells (%)): 89% | viability at 2.5 µM (NCI-H69 cells [1]; Homo sapiens, NCI-H69, Table 1 dose response, agent alone 2.5 µM, 48 h, read-out: Viable cells (%)): 89.4% | viability at 5 µM (NCI-H69 cells [1]; Homo sapiens, NCI-H69, Table 1 dose response, agent alone 5.0 µM (highest dose), 48 h, read-out: Viable cells (%)): 85.1% | Effect on NCI-H69 cell viability compared to the DMSO control (NCI-H69 cells [1]; inhibitor alone at 2.5 µM): did not affect

COc1cc([C@@H]2c3cc4c(cc3[C@@H](O[C@@H]3O[C@@H]5CO[C@@H](C)O[C@H]5[C@H](O)[C@H]3O)[C@H]3COC(=O)[C@H]23)OCO4)cc(OC)c1O [VP-16 (Etoposide), etoposide]
Decrease of viability by single agent [2]: 50% | viability at 10 µM (NCI-H69 cells [1]; Homo sapiens, NCI-H69, Table 1 dose response, agent alone 10 µM, 48 h, read-out: Viable cells (%)): 75.7% | viability at 20 µM (NCI-H69 cells [1]; Homo sapiens, NCI-H69, Table 1 dose response, agent alone 20 µM, 48 h, read-out: Viable cells (%)): 76.8% | viability at 50 µM (NCI-H69 cells [1]; Homo sapiens, NCI-H69, Table 1 dose response, agent alone 50 µM, 48 h, read-out: Viable cells (%)): 65.2% | viability at 100 µM (NCI-H69 cells [1]; Homo sapiens, NCI-H69, Table 1 dose response, agent alone 100 µM, 48 h, read-out: Viable cells (%)): 61.3% | viability at 150 µM (NCI-H69 cells [1]; Homo sapiens, NCI-H69, Table 1 dose response, agent alone 150 µM, 48 h, read-out: Viable cells (%)): 55.4% | viability at 20 µM (NCI-H69 cells [1]; Homo sapiens, NCI-H69, Table 2, VP-16 20 µM, alone or with MK2.III 1.0 µM or SB203580 2.5 µM, read-out: Viable cells (%)): 57.3% | viability at 50 µM (NCI-H69 cells [1]; Homo sapiens, NCI-H69, Table 2, VP-16 50 µM, alone or with MK2.III 1.0 µM or SB203580 2.5 µM, read-out: Viable cells (%)): 46.4% | viability at 100 µM (NCI-H69 cells [1]; Homo sapiens, NCI-H69, Table 2, VP-16 100 µM, alone or with MK2.III 1.0 µM or SB203580 2.5 µM, read-out: Viable cells (%)): 45.4% | viability at 150 µM (NCI-H69 cells [1]; Homo sapiens, NCI-H69, Table 2, VP-16 150 µM, alone or with MK2.III 1.0 µM or SB203580 2.5 µM, read-out: Viable cells (%)): 37.5% | Difference in tumor size versus control (NCI-H69 xenograft; at any checkpoint, etoposide 12 mg/kg, MK2.III 4 mg/kg, or etoposide + MK2.III 2 mg/kg): no significant difference | Tumor Volume (mm^3) median (25th and 75th quartile) (NCI-H69 xenograft; day 11 upon treatment, MK2.III 4 mg/kg IP daily): 556(360;839) mm^3 | Tumor Volume (mm^3) median (25th and 75th quartile) (NCI-H69 xenograft; day 18 upon treatment, MK2.III 4 mg/kg IP daily): 1219 (995;1387)^*** mm^3 | Tumor Volume (mm^3) median (25th and 75th quartile) (NCI-H69 xenograft; day -1 upon treatment (baseline), MK2.III 4 mg/kg IP): 93.5 (66;125) mm^3 | Effect on cell cycle profile, single agent (NCI-H69 cells [3]): G2 cell cycle arrest | Effect of single agent on viability [4]: did not affect the viability | Decrease of viability by single agent [5]: 65% | Percentage of surviving cells (NCI-H69 cells [6]; etoposide 20 µM): 72% | Percentage of surviving cells (NCI-H69 cells [6]; etoposide 150 µM): 36%
